Reference: US11291627B1 (Ocular Therapeutix, Inc., priority 2020, dated 2022)
Like-named read-outs stand apart in the source and are kept apart here.

Key:
[1] = 0.7 mg dose SAZ insert, beagles
[2] = Example 3.2 proof-of-concept PK study: cyclosporine tear fluid concentration and drug released, beagles (Table 3.2); format: in vivo, beagle dogs; conditions: 0.44 mg dose SG insert, over 32 days, assuming consistent daily release
Description: Inserts were removed at 32 days to determine the amount of remaining drug compared to the administered dose.

[3] = cyclosporine specification provided by the supplier; cited from earlier work

In the case of `CC=CCC(C)C(O)C1C(=O)NC(CC)C(=O)N(C)CC(=O)N(C)C(CC(C)C)C(=O)NC(C(C)C)C(=O)N(C)C(CC(C)C)C(=O)NC(C)C(=O)NC(C)C(=O)N(C)C(CC(C)C)C(=O)N(C)C(CC(C)C)C(=O)N(C)C(C(C)C)C(=O)N1C` (stereo not drawn) [Cyclosporine, 30-ethyl-33-(1-hydroxy-2-methylhex-4-enyl)-1,4,7,10,12,15,19,25,28-nonamethyl-6,9,18,24-tetrakis(2-methylpropyl)-3,21-di(propan-2-yl)-1,4,7,10,13,16,19,22,25,28,31-undecazacyclotritriacontane-2,5,8,11,14,17,20,23,26,29,32-undecone], the “average amount of cyclosporine released in 6 weeks” value ([1]; inserts removed at 6 weeks) is reported as 0.37 mg, the “estimated daily delivered dose” value ([1]; over 6 weeks, assuming consistent daily release) is reported as 8.8 µg/day and the “estimated daily delivered dose” value [2] is reported as 6.3 µg/day. For the same compound, the D10 [3] was 0.5 μm, the D50 [3] was 2.1 μm and the D90 [3] was 7.5 μm.
